Laboratory results from patent publication US20260242324A1, “FATTY ACID MIMETICS AS MODULATORS OF GPR40 AND/OR GPR120” (Trustees of Dartmouth College, priority 2023, published 2026).
Read-outs that look alike come from different tables or passages of the source.

How the values were obtained:
[1] = target: T1, GPR40 (Homo sapiens, UniProt O14842); assay: β-arrestin assay (PathHunter) for GPR40 agonism; assay type: cell-based; details: for GPR40 agonism / selectivity for GPR40 over GPR120 / EC50: dose-response; for GPR40 agonism / selectivity for GPR40 over GPR120: FIG. 9B; for activity at GPR40 in heat map of % maximal efficacy: single dose 15 μM, FIG. 9A, compared to oleic acid at 15 μM; for potency at GPR40 relative to oleic acid: multiple of oleic acid potency; for EC50: PathHunter β-arrestin
T1 construct: beta-galactosidase enzyme fragment for EFC (ProLink-type tag); expressed in transfected cells
Experimental: (§1) In this example, compounds from Example 1 were assessed as functional ligands (agonists) to two oleic acid receptors (GPR40 and GPR120). […]

[2] = target: T2, GPR120 (Homo sapiens, UniProt Q5NUL3); assay: β-arrestin assay (PathHunter) for GPR120 agonism; assay type: cell-based; parameters: beta-galactosidase enzyme fragment for EFC (ProLink-type tag); expressed in transfected cells; details: for EC50: PathHunter β-arrestin, dose-response; for agonist efficacy at GPR120: relative to oleic acid and GW9508; for activity at GPR120 in heat map of % maximal efficacy: single dose 15 μM, FIG. 9A, compared to oleic acid at 15 μM
T2 sequence (Q5NUL3 1-361): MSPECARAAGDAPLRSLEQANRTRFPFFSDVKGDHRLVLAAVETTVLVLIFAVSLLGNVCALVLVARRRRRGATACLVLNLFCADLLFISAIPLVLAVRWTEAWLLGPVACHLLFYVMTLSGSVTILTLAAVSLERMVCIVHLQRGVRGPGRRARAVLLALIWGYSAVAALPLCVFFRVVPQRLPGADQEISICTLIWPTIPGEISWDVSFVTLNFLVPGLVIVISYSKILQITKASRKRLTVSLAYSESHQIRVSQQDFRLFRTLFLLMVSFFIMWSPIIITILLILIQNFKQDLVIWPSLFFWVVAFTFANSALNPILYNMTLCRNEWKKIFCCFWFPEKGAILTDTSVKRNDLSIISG
Experimental: as §1

[3] = target: T2, GPR120; details: read-out: EC50 as agonist of GPR120; reported; cited from earlier work
[4] = target: T3, CHO-mGPR40 cells (Mus musculus, UniProt Q76JU9); details: reported; read-out: EC50, stimulatory activity on CHO-mGPR40 cells; cited from earlier work
T3 construct: host or cells: CHO cells transfected with mGPR40

[5] = tested on: MIN6 cells; details: reported, concentrations as low as; cited from earlier work

T1 sequence (O14842 whole entry, the tested form may be a part): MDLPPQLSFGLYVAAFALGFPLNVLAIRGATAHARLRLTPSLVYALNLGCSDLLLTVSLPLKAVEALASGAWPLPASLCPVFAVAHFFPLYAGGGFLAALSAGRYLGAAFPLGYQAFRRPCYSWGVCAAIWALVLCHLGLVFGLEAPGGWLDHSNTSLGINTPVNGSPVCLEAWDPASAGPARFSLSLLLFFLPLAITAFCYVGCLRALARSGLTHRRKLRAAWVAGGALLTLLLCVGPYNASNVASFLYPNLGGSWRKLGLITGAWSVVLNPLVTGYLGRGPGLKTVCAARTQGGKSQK
T3 sequence (Q76JU9 whole entry): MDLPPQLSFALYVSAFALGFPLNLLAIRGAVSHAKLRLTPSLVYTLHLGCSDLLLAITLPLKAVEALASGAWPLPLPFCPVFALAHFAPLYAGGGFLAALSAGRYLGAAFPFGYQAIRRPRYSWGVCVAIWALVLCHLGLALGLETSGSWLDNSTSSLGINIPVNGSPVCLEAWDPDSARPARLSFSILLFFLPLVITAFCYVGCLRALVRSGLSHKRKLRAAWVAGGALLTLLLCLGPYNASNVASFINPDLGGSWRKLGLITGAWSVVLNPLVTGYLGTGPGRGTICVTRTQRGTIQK

SMILES	GPR40 agonism [1]	selectivity for GPR40 over GPR120 [1]	activity at GPR40 in heat map of % maximal efficacy [1]	activity against GPR120 [2]	EC50 [2]	agonist efficacy at GPR120 [2]	activity at GPR120 in heat map of % maximal efficacy [2]	potency at GPR40 relative to oleic acid [1]	also measured
CCCCCCCCC[C@@H](C)/C=C(/C)C/C(C)=C/[C@H](C)CC(=O)O [Compound 1-C]	exceptionally selective and potent agonists of GPR40	substantial selectivity over GPR120	enriched for activity at GPR40						
CCC[C@@H](C)/C=C(/C)C/C(C)=C/[C@H](C)CCCCCCCC(=O)O [Compound 4-C]				inactive against GPR120					
CCCCCCC[C@@H](C)/C=C(/C)C/C(C)=C/[C@@H](C)CCCC(=O)O [Compound 2-D]	effective agonists of GPR40				1 to 7 µM	agonist efficacy at a fraction of what is observed with oleic acid and GW9508	enriched for activity at GPR120	approximately 6 fold	
CCCCCCCCC[C@H](C)/C=C(/C)C/C(C)=C/[C@@H](C)CC(=O)O [Compound 1-F]	exceptionally selective and potent agonists of GPR40	substantial selectivity over GPR120							
CCCCCCCC/C=C\CCCCCCCC(=O)O [oleic acid, reference compound]				agonist activity against GPR120	15 µM				EC50 [3]: 12 µM; EC50 [4]: 2 µM; concentration inducing insulin secretion in MIN6 cells [5]: ≥ 1 µM; EC50 [1]: 37 µM; right shift of reporter assay results ([1]; versus reported values, receptor not specified): ~ 20 fold
CCCCCCC[C@H](C)/C=C(/C)C/C(C)=C/[C@H](C)CCCC(=O)O [Compound 2-E]	effective agonists of GPR40				1 to 7 µM	agonist efficacy at a fraction of what is observed with oleic acid and GW9508	enriched for activity at GPR120	approximately 6 fold	selectivity for GPR120 ([2]; GPR120 over GPR40): 5 fold; enhanced potency ([2]; versus oleic acid or GW9508): 7-15 fold
CCCCCCC[C@@H](C)/C=C(/C)C/C(C)=C/[C@H](C)CCCC(=O)O [Compound 2-C]	effective agonists of GPR40			agonist activity against GPR120	1 to 7 µM	agonist efficacy at a fraction of what is observed with oleic acid and GW9508	enriched for activity at GPR120	approximately 6 fold	
CCCCCCCCCC/C=C(/C)C/C(C)=C/[C@H](C)CC(=O)O [Compound 1-A]			enriched for activity at GPR40						
O=C(O)CCc1ccc(NCc2cccc(Oc3ccccc3)c2)cc1 [GW9508, reference compound]									EC50 [1]: 1 µM
CCCCCCCCC[C@H](C)/C=C(/C)C/C(C)=C/[C@H](C)CC(=O)O [Compound 1-E]	exceptionally selective and potent agonists of GPR40	substantial selectivity over GPR120	enriched for activity at GPR40					twelve times greater than oleic acid	
